Data on two substances can be found in publication PMC5753150 (Beilstein Journal of Organic Chemistry, 2017).

Series [1] has as its system elastase (EC 3.4.21.36). Nature of the series: elastase in 100 mM Tris/HCl buffer, pH 8.4. Conditions: porcine pancreas, 37 °C, up to 24 h.
Series [2] concerns pepsin (EC 3.4.23.1). Nature of the series: pepsin in 10 mM acetate buffer, pH 4.0. The settings on record: porcine stomach mucosa, 30 °C, up to 24 h.
The test system of series [3] is elastase (from porcine pancreas, EC 3.4.21.36). Nature of the series: elastase in 100 mM Tris/HCl buffer, pH 8.4. Conditions: 37 °C, up to 24 h.
The subject of series [4] is proteinase K (EC 3.4.21.64). Nature of the series: proteinase K in 50 mM Tris/HCl buffer, containing 10 mM CaCl2 pH 7.5. The settings on record: tritirachium album, 37 °C, up to 24 h.
The test system of series [5] is α-chymotrypsin (EC 3.4.21.1). Nature of the series: α-chymotrypsin in 10 mM phosphate buffer, pH 7.4. Conditions: bovine pancreas, 30 °C, up to 24 h.
For series [6], the system named is dipeptidyl peptidase. Conditions: wild-type peptide; cited from earlier work. An excerpt:
Several laboratories have focused on introducing highly fluorinated analogues of hydrophobic amino acids and have studied the effects on stability of the resulting proteins towards thermal and chemical denaturation. These studies prompted further investigation into the extent to which fluorinated amino acids stabilize peptides and proteins against proteolytic degradation in particular. Meng and Kumar reported that the incorporation of 5,5,5,5’,5’,5’-hexafluoroleucine (HfLeu) into the antimicrobial peptides magainin 2 amide and buforin enhanced their resistance towards proteolyt ...

For Abz-KAAFALeuAAK, the cleaved bond result was “A-A and A-Leu and A-K” in series [1]; “F-A” in series [2]; “A-F and Leu-A” in series [4]; “F-A, major” in series [5]. Further, the not cleaved entry in series [3] is reported as “no fragments with Phe in P1 observed”.
As to glucagon-like-peptide-1 [GLP-1], in series [6], the “Time of rapid digestion by the serine protease dipeptidyl peptidase” value is listed as “≈ 2 min”.
